Source: US20230150951A1, “2,5- OR 2,6-DISUBSTITUTED HYDROQUINONE DERIVATIVES WITH AT LEAST ONE CARBOXY, SULFO OR AMIDO GROUP USEFUL AS MEDICAMENTS” (OM PHARMA SA, priority 2020, published 2023)

Legend:
Format in all cases: cell-based
Human neutrophils [1] = experiment: Neutrophil adhesion under static conditions; settings: fMLP-stimulated adhesion to fibrinogen; method: 40 μM and 80 μM, concentration of the value not stated
Experimental: Human neutrophils obtained from buffy coats of healthy donors were suspended at 3×10^6/ml in adhesion buffer (PBS containing 1 mM CaCl2)/MgCl2 and 10% FCS, pH 7.2). Neutrophils were preincubated for 30 min at 37° C. with 40 μM and 80 μM of the compounds.
Adhesion assays were performed on 18-well glass slides coated for 18 h at 4° C. with human fibrinogen (20 μg/well in endotoxin-free PBS); 20 μl of cell suspension were added to each well and stimulated for 1 min at 37° C. with 5 μl of fMLP 1 nM final concentration. After washing, adherent cells were fixed in glutaraldehyde 1.5% in PBS and counted by computer-assisted enumeration. Statistical analysis was performed by calculating mean and standard deviation (SD); significance was calculated by unpaired t-test. All statistical analyses were performed using GraphPad Prism 6 (GraphPad Software).

VEGFR-2 = biological target: T1, VEGFR-2 (Homo sapiens, UniProt P35968); experiment: VEGF-165 induced phosphorylation of VEGF-Receptor on HUVEC; settings: HUVEC preincubated 60 min, VEGF165 25 ng/mL 2 min; read-out: VEGFR-Phosphorylation inhibition IC50
T1 construct: endogenous in cells; host or cells: primary HUVEC
Experimental: Cell culture: Primary human umbilical vein endothelial cells (HUVECs) were routinely cultured in 0.1% gelatin pre-coated flasks or dishes, up to passage 6. […]
Rabbit primary antibodies for VEGFR-2, p-Tyr1175 were acquired from Cell Signaling Technology (Leiden, The Netherlands). Phospho-VEGFR-2 (Tyr1175) Sandwich ELISA Kit was from Cell Signaling Technology.
[…] Western blot analysis was performed using anti-phospho-VEGFR-2 antibody and total VEGFR-2 was used as a loading control after membrane stripping.
Inhibition of VEGFR-2-phosphorylation results are expressed as IC50 in microM [μM] versus VEGF-treated HUVECs control without inhibitory compound.

VEGF-A = biological target: T2, VEGF-A (Homo sapiens, UniProt P15692); experiment: VEGF-A induced sprouting of HUVEC, spheroid-based cellular angiogenesis assay; settings: VEGF-A 25 ng/mL preincubated with compound, 24 h, read-out: VEGF-A1 IC50
T2 construct: purchased ProQinase GmbH
T2 sequence (P15692 27-191 isoform P15692-4): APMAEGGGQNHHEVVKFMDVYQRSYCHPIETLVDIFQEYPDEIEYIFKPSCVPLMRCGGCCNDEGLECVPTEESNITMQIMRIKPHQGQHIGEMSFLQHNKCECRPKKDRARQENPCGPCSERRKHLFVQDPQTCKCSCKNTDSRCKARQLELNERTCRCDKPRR
Experimental: (§1) Aim of this in vitro method is to assess compounds effects on FGF-2, FGF-1, or VEGF-A induced sprouting of human umbilical vein endothelial cells (HUVEC) in the spheroid-based cellular angiogenesis assay. Before adding the growth factors to the cells, they were preincubated with the compound. Sunitinib was tested as a control (without preincubation).
(§2) IC50 values determined for the tested compounds are expressed in microM [μM] and the values for the inhibition of FGF-1, FGF2 and VEGF-A induced growth (sprouting) are listed after each compound in the examples after chemical characterization.
(§3) Sprouting test was performed on the compounds dissolved in DMSO to reach 100-fold concentrated stock solutions and dissolved in culture media. Sunitinib as reference compound was provided by ProQinase GmbH. Growth factors were purchased from rhFGF-basic (FGF-2), Peprotech, New Jersey, USA, #100-18C, Lot #0415571; rhFGF-acidic (FGF-1), Peprotech, New Jersey, USA, #100-17A, Lot #031207; hVEGF-A165 (ProQinase GmbH, Freiburg, Germany; 05.02.2010) were used for stimulation of HUVEC cells growth.
(§4) Test system: Endothelial cells from human umbilical vein (HUVEC) from pooled donors were stored frozen with 70% medium, 20% FCS, 10% DMSO at about 1×10^6 cells/ampoule. HUVEC cells, primary human umbilical vein endothelial cells (PromoCell, Heidelberg, Germany), were used after passage 3 to 4. Morphology of the cells are adherent, cobblestone-like growing as monolayer and were cultured in endothelial cell growth and basal medium (ECGM/ECBM, PromoCell). The subculture was split 1:3; every 3-5 days, seed out at ca. 1×10^4 cells/cm^2 and incubated at 37° C. with 5% CO2 with a doubling time 24-48 hours
(§5) Dilution of test compounds: 100× concentrated solutions (concerning to the final assay concentrations) of each test compound were prepared with the appropriate solvent (in DMSO or in water). These 100×compound solutions were further diluted in endothelial cell growth and basal medium (ECBM) 1:7.5 to get a 13.33× concentrated solution. 75 μl of the 13.33×solution was subsequently mixed with 25 μl of 40× concentrated stimulus (solved in ECBM), resulting in a 10×concentrated stimulus/compound mixture. This mixture (100 μl) was incubated for 30 min at 37° C. and then added to 900 μl gel, containing the HUVEC spheroids (resulting in the final assay concentration).
(§6) Test method: the experiments were pursued in modification of the originally published protocol (Korff and Augustin: J Cell Sci 112: 3249-58, 1999). In brief, spheroids were prepared as described (Korff and Augustin: J Cell Biol 143: 1341-52, 1998) by pipetting 400 HUVEC in a hanging drop on plastic dishes to allow overnight spheroid aggregation. 50 HUVEC spheroids were then seeded in 0.9 ml of a collagen gel and pipetted into individual wells of a 24 well plate to allow polymerization. The test compounds were preincubated with the growth factors (FGF-1, FGF-2 or VEGF-A final concentration 25 ng/mL) in a 10-fold concentrated solution and subsequently, 100 μl of this solution was added on top of the polymerized gel. All compounds were diluted in solvent (DMSO or water) as 100×stocks first (which means 100×stocks of each final assay concentration were prepared in solvent). Subsequently, these stocks were further diluted in medium (resulting in the 13.33×stocks of each final assay concentration) with final concentrations tested: 100, 50, 25, 12.5, 6.25, 3.13 and 1.56×10^−6 M). Plates were incubated at 37° C. for 24 hours and fixed by adding 4% PFA (Roth, Karlsruhe, Germany).
(§7) Quantification of growth factor inhibition: sprouting intensity of HUVEC spheroids treated with the growth factor and the inhibitors were quantitated by an image analysis system determining the cumulative sprout length per spheroid (CSL).

Human neutrophils [2] = experiment: Inhibition of ROS production in human neutrophils (isoluminol chemiluminescence); settings: fMLP+TNF-α stimulated PMN
Excerpt: NADPH oxidase, located in the plasma membrane and in the membranes of specific granules, produces superoxide anions from which other ROS, such as hydrogen peroxide, singlet oxygen, hypochlorite, and active hydroxyl radicals. ROS are released into the surrounding medium or into a membrane-enclosed subcellular organelle. One quick and sensitive method for measuring the generation of these metabolites is chemiluminescence (CL). Isoluminol amplified CL technique, is very sensitive and widely used to study respiratory burst (mainly extracellular production of ROS) induced in neutrophils.
Human neutrophils were isolated from buffy coats which obtained from healthy donors. The isolated neutrophils (3×10^6/ml) were suspended in Hanks' Balanced Salt Solution (HBSS) with Calcium and Magnesium. Neutrophils were pre-incubated with the compounds at different concentrations (0.1, 0.3, 1, 3 and 10 μM) for 30 min at 37° C. The black 96-well cell culture plates were coated with human fibrinogen (0.25 mg/ml in PBS), and incubated overnight at 4° C. or 2 hr at 37° C. Then the plates were washed with endotoxin-free PBS. The neutrophils were incubated (priming) with TNF-α (20 ng/ml) for 10 minutes at 37° C. Thereupon the 75 μl of cell suspension and 75 μl (Isoluminol+HRP solution) were added to each well. The chemiluminescence was recorded (every 25 sec for 250 sec) after fMLP (1 μM) activation using a Multilabel Reader victor3 (Perkin Elmer, USA). Background values, defined as the mean chemiluminescent values of isoluminol diluted in HBSS, were subtracted from all readings (CPS, count per second). The assays were done in duplicate or triplicate.

FGF-2 = biological target: T3, FGF-2 (Homo sapiens, UniProt P09038); experiment: FGF-2 induced sprouting of HUVEC, spheroid-based cellular angiogenesis assay; settings: FGF-2 25 ng/mL preincubated with compound, 24 h
T3 construct: purchased Peprotech 100-18C
Experimental: as §1, §2, §3, §4, §5, §6, §7

FGF-1 = biological target: T4, FGF-1 (Homo sapiens, UniProt P05230); experiment: FGF-1 induced sprouting of HUVEC, spheroid-based cellular angiogenesis assay; settings: FGF-1 25 ng/mL preincubated with compound, 24 h
T4 construct: purchased Peprotech 100-17A
Experimental: as §1, §2, §3, §4, §5, §6, §7

[3] = Homo sapiens, Neutrophil, 0.3 μM

T4 sequence (P05230 whole entry): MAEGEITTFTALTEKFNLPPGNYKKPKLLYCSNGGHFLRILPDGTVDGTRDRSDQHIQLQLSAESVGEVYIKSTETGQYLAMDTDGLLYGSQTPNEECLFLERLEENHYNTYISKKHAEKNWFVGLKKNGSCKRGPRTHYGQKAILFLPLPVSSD
T3 sequence (P09038 134-288): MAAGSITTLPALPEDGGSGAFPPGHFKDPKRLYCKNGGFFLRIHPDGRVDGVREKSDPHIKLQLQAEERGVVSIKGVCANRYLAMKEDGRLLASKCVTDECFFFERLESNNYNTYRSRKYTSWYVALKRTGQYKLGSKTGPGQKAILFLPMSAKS
T1 sequence (P35968 20-1356): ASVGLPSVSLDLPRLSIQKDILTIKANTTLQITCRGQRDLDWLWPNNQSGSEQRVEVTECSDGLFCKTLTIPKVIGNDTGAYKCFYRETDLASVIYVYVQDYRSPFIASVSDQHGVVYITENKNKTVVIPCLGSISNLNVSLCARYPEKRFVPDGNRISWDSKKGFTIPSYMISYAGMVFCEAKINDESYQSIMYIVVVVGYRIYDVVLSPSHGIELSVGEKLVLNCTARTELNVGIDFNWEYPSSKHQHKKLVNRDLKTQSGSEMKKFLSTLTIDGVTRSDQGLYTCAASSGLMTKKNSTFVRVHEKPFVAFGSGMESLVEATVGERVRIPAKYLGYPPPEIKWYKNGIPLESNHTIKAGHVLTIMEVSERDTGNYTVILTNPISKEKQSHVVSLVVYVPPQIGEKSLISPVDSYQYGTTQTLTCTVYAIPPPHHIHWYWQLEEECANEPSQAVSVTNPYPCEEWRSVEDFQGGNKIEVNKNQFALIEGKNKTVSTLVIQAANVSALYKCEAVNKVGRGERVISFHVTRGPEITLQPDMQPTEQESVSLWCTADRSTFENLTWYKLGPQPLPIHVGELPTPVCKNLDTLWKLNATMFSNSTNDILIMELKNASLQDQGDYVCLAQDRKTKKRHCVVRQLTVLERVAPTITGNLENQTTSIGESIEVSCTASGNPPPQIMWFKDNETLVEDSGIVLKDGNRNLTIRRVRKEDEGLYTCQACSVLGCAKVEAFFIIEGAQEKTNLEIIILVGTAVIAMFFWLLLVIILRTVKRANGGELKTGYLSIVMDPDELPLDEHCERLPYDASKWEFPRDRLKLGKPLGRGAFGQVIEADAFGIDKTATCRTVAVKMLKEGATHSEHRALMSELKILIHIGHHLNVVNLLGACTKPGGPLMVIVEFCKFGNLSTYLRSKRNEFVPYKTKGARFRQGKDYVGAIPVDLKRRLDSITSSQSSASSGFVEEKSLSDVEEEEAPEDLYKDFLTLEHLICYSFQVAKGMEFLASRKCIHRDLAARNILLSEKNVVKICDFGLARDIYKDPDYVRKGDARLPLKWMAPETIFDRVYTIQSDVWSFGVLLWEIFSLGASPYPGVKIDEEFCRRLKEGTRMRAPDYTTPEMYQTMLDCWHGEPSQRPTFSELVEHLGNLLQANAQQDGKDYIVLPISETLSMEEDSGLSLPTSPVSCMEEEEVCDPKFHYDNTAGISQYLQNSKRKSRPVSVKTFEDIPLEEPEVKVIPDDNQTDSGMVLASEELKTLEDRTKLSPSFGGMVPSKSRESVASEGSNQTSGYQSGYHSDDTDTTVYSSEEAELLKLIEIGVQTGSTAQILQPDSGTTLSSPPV

| IC50 (VEGFR-2) [µM] | IC50 (VEGF-A) [µM] | IC50 (FGF-2) [µM] | IC50 (FGF-1) [µM] | IC50 (Human neutrophils [2]; Homo sapiens, Neutrophil) [µM] | SMILES | Neutrophil adhesion inhibition (Human neutrophils [1]) [%] | PMN ROS inhibition at 0.3 μM (Human neutrophils [2]; 0.3 μM) [%] | inhibition at 0.3 µM (Human neutrophils [2]; [3]) [%] |
| --- | --- | --- | --- | --- | --- | --- | --- | --- |
| 1.6 | 123 | 37 | – | – | O=C(O)c1cc(O)c(C(=O)NC(C(=O)O)c2ccc(O)c(O)c2)cc1O (stereo not shown) [Ia-036a, 4-(Carboxy(3,4-dihydroxyphenyl)methylaminocarbonyl)-2,5-dihydroxybenzoic acid] | 30.77 | 87.17 | – |
| 6.6 | 141 | 76 | – | – | CCOC(=O)c1cc(O)c(C(=O)Nc2cnccc2C(=O)OCC)cc1O [Ia-023a-E2, ethyl 3-(4-(ethoxycarbonyl)-2,5-dihydroxybenzamido)isonicotinate] | 34 | – | 69.5 |
| 2.9 | 121 | 43 | – | – | O=C(O)c1cc(O)ccc1NC(=O)c1cc(O)cc(C(=O)O)c1O [IIa-006a, 3-(2-carboxy-4-hydroxyphenylaminocarbonyl)-2,5-dihydroxybenzoic acid] | 20.29 | – | 84.3 |
| ≥ 100 | 143 | 63 | – | – | O=C(O)c1cc(O)c(C(=O)Nc2cnccc2C(=O)O)cc1O [Ia-023a, 3-(4-carboxy-2,5-dihydroxybenzamido)isonicotinic acid] | 13.37 | – | 62 |
| 1.3 | 114 | 51 | – | – | O=C(O)c1cc(O)c(COCc2cc(O)c(C(=O)O)cc2O)cc1O [IIIc-060a, 4-((2,5-Dihydroxy-4-carboxyphenyl)methoxymethyl)-2,5-dihydroxybenzoic acid] | 41.38 | – | 86.8 |
| – | 32 | 10 | 62 | – | O=C(O)Cc1cc(O)c(C(=O)Nc2ccccc2C(=O)O)cc1O [IIIa-001a, 2-(4-(carboxymethyl)-2,5-dihydroxybenzamido)benzoic acid] | 30.4 | – | 74.8 |
| – | 208 | 202 | 32 | – | O=C(Nc1ccc(O)cc1C(=O)O)c1cc(O)c(C(=O)Nc2ccc(O)cc2C(=O)O)cc1O [Ic-009a, 2-(2,5-dihydroxy-4-(4-hydroxy-2-carboxyphenylaminocarbonyl)benzamido)-5-hydroxy benzoic acid] | 72.21 | – | 72.8 |
| 3.31 | 32 | – | – | 0.313 | O=C(O)c1ccc(C(=O)O)c(NC(=O)c2cc(O)cc(C(=O)O)c2O)c1 [IIa-012a, 2-(3-carboxy-2,5-dihydroxybenzamido)terephthalic acid] | 7.5 | – | 44.8 |
| – | 28 | 102 | ≥ 200 | – | O=C(O)c1cc(NC(=O)c2cc(O)cc(C(=O)O)c2O)cc(NC(=O)c2cc(O)cc(C(=O)O)c2O)c1 [IIb-010a, 3,5-Bis(2,5-dihydroxy-3-carboxybenzoylamino)benzoic acid] | 59.84 | – | 81.9 |
| – | 43 | 33 | ≥ 200 | – | CCOC(=O)Cc1cc(O)c(C(=O)Nc2ccccc2C(=O)OC)cc1O [IIIa-001a-E2, methyl 2-(4-(ethoxycarbonylmethyl)-2,5-dihydroxybenzamido)benzoate] | 44.46 | – | 69.7 |
| 7.2 | 87 | 191 | – | – | CCOC(=O)Cc1cc(O)c(C(=O)Nc2cc(C(=O)OCC)cc(C(=O)OCC)c2)cc1O [IIIa-015a-E3, diethyl 5-(4-(ethoxycarbonylmethyl)-2,5-dihydroxybenzamido)isophthalate] | 61.22 | – | 91.4 |
| – | 187 | 9.8 | – | – | O=C(O)c1cc(O)cc(C(=O)Nc2ccccc2-c2nnn[nH]2)c1O [IIa-001a-Tz, 3-(2-(1H-tetrazol-5-yl)phenylaminocarbonyl)-2,5-dihydroxybenzoic acid] | 24.18 | – | 74.2 |

| SMILES | IC50 (VEGFR-2) [µM] | IC50 (VEGF-A) [µM] | IC50 (FGF-2) [µM] | IC50 (FGF-1) [µM] | IC50 (Human neutrophils [2]; Homo sapiens, Neutrophil) [µM] | Neutrophil adhesion inhibition (Human neutrophils [1]) [%] | PMN ROS inhibition at 0.3 μM (Human neutrophils [2]; 0.3 μM) [%] | inhibition at 0.3 µM (Human neutrophils [2]; [3]) [%] |
| --- | --- | --- | --- | --- | --- | --- | --- | --- |
| CCOC(=O)c1cc(OC(C)=O)c(C(=O)Nc2ccccc2-c2nnn[nH]2)cc1OC(C)=O [Ia-001a-Tz-E1-A2, ethyl 4-(2-(1H-tetrazol-5-yl)phenylaminocarbonyl)-2,5-diacetoxybenzoate] | – | ≥ 200 | ≥ 200 | 60 | – | 98.2 | – | 49.9 |
